The source of these data is article PMC5660723, “Histone Deacetylase Inhibitors Are Protective in Acute but Not in Chronic Models of Ototoxicity” (Frontiers in Cellular Neuroscience, 2017).

Data set [1] can be described thus: Guinea pig tolerability, serum platelet, BUN and creatinine levels. It counts as in vivo, guinea pigs. The settings on record: GM + DMSO, n=4; in mg/dL (unit assumed). Here is the method: Pigmented male guinea pigs initially weighing 200–250 g from Charles River were used in the in-vivo study. Experiments were begun 1 week after the guinea pigs arrived. To select safe doses of SAHA for protective studies, we conducted two separate sets of experiments to assess serum platelet concentrations. In the first set, pigmented guinea pigs received daily IP injections of SAHA at lower doses (LD; 2 mg/kg and 5 mg/kg) concurrent with SQ injections of 120 mg GM base/kg body weight daily for 2 weeks. In the second study, the higher doses (HD) of SAHA (15 mg/kg and 25 mg/kg) were used. The DMSO concentration was 1.1 g/kg, equal to the DMSO concentration used for the 25 mg/kg concentration of SAHA. […] We then tested the protective ability of SAHA at LD (2 mg/kg and 5 mg/kg) and at HD of SAHA (15 mg/kg and 25 mg/kg) against GM-induced hearing loss concurrent with daily SQ injections of GM (dissolved in saline) at 120 mg base/kg for 14 days. SAHA was dissolved in 100% DMSO for stock solutions of 25 mg/mL and diluted with saline immediately before IP injections. All compound solutions were filtered with syringe filters before injection. Body weights were measured before each injection. If a guinea pig lost ~5% of its body weight, an additional 3–4 mL of saline was administrated subcutaneously.
Blood was obtained by nail clipping after light anesthesia of the guinea pigs by metofane inhalation after the last drug injections. Blood cells were separated by centrifugation at 1000× g for 15 min, and sera were stored at −20°C. Blood urea nitrogen (BUN), creatinine and platelet concentrations were determined using a Kodak Ektachem700XR Clinical Chemistry Analyzer (Clinical Products Division, Eastman Kodak, Rochester, NY, USA) and analyzed by Dr. Donald Giacherio, Chemical Pathology Laboratory, University of Michigan.
While the CBA/J mouse is a well-established model for chronic KM-induced ototoxicity, we wished to ascertain whether the lack of protection by SAHA might be species-dependent. We therefore tested if SAHA treatment had protective effects against GM-induced hearing loss in guinea pigs. To find safe doses to be used in guinea pigs in vivo, we first assessed serum platelet concentrations. Guinea pigs tolerated injections of SAHA at all concentrations of 5–25 mg/kg body weight concurrent with SQ injections of 120 mg GM base/kg body weight daily for 2 weeks with normal appearing fur and steadily increasing body weight. Blood samples were collected after the last injection.

For data set [2], the system named is outer hair cells (OHCs) of p3 murine organ of Corti explants. In words: Protection against gentamicin-induced OHC loss in murine organ of Corti explants. The settings on record: for concentration at which protection from GM-induced OHC loss begins / concentration that completely prevents GM-induced OHC loss / ED50 (median effective protective dose): 4.5 μM GM; for ED50 (median effective protective dose): 72 h co-incubation, p3 murine explants. It counts as cell-based, CBA/J mice. The source says: (§1) The culture procedures have been described in detail (Chen et al., [2009]). In brief, postnatal day 3 (p3) CBA/J pups were euthanized after antisepsis using 70% ethanol. Inner ears were extracted from surrounding tissue and immersed in cold Hank’s balanced salt solution. The lateral wall tissues (stria vascularis and spiral ligament) and the auditory nerve bundle were micro-dissected from the organ of Corti. The explants were placed onto a prepared culture dish containing a 15-μL polymerized drop of rat tail collagen in 1 mL of culture medium consisting of Basal Medium Eagle, 1% serum-free supplement (Invitrogen, Carlsbad, CA, USA), 1% bovine serum albumin, 5 mg/mL glucose, and 10 U/mL penicillin G. After 4 h of incubation (37°C, 5% CO2), an additional 1 mL of medium was added to submerge the explants.
(§2) The medium was then exchanged for new medium containing a final concentration of 4.5 μM GM with or without various concentrations of the HDAC inhibitors and incubated for 72 h. The stock solutions with 95 mM of SAHA/vorinostat (Cayman Chemical, Ann Arbor, MI, USA), 100 mM of belinostat (Selleckchem, Houson, TX, USA), and 100 mM of panobinostat (Cayman Chemical), were dissolved in 100% dimethyl sulfoxide (DMSO) and stored at −20°C. GM solution was made fresh from powder in culture medium at 0.2 mM and then diluted to the final concentration for each experiment.
(§3) Explants were fixed with 4% paraformaldehyde overnight at 4°C and permeabilized for 30 min with 3% Triton X-100 in phosphate-buffered saline (PBS) at room temperature (22–24°C). The specimens were then washed three times with PBS and incubated with rhodamine-phalloidin (Invitrogen) at a 1:100 dilution for 60 min at room temperature (22–24°C). After rinsing in PBS, the specimens were mounted on a slide with Gel-Mount™ (BioMeda Corp., Foster City, CA, USA). The phalloidin-stained stereociliary bundles and circumferential F-actin rings on the cuticular plate of OHCs allowed the determination of cells that were present or missing. A clear “V” shape of stereocilia indicates the presence of OHCs. If the “V” shape is not visualized, we accept this as a damaged hair cells. Cell populations were assessed on a Leitz Orthoplan upright microscope equipped for epifluorescence, using a 50× oil-immersion objective. […] Each successive 0.19-mm field was evaluated for the absence of OHCs beginning from the apex and moving down the organ of Corti to the base. The percentage of OHC loss was calculated.
After having established the safe concentration range for the HDAC inhibitors, we explored their efficacy as protective agents against GM-induced OHC loss. […] From the assessment of safe doses and the median effective (protective) doses (ED50) of the three HDAC inhibitors, we calculated the therapeutic index (TI = TD50/ED50) to be highest (safest) for belinostat and lowest for panobinostat (for detailed values see Table 2).

The subject of a further data set is pigmented guinea pigs. Put plainly: Gentamicin-induced ototoxicity in guinea pigs in vivo (ABR threshold shifts, OHC counts), chronic model. The following applies: GM 120 mg base/kg SQ daily for 2 weeks.
For another data set, the system named is CBA/J mice. In words: Kanamycin-induced hearing loss in CBA/J mice in vivo (ABR threshold shifts), chronic model. The following applies: KM 700 mg base/kg SQ twice daily for 15 days. Here is the method:
Male CBA/J mice at the age of 5 weeks received subcutaneous (SQ) injections of KM at 700 mg base/kg (dissolved in saline) twice per day (AM and PM). SAHA for administration was dissolved in 100% DMSO for stock solutions of 50 mg/mL and diluted with saline immediately before intraperitoneal (IP) injection, for a final dose of 50 mg/kg, given twice per day for 15 days. The concentration of DMSO vehicle control was 1 mL/kg body weight. All solutions were filtered with a syringe filter before injection. Body weight was measured before each injection.
ABRs were measured 3 days before and 3 weeks after drug treatments. Animals were anesthetized with IP injections of ketamine (100 mg/kg) and xylazine (10 mg/kg) for mice or ketamine (58.8 mg/kg), xylazine (2.4 mg/kg), and acepromazine (1.2 mg/kg) for guinea pigs. Body temperature was maintained near 37°C with a heating pad. ABRs were measured at 12 and 32 kHz for guinea pigs or 8, 16, and 32 kHz for mice in a sound-isolated and electrically shielded booth (Acoustic Systems, Austin, TX, USA). Sub-dermal electrodes were inserted at the vertex of the skull, under the left ear and under the right ear (ground). Tucker Davis Technology System III hardware and SigGen/Biosig software were used to present the stimuli monaurally (15 ms duration tone bursts with 1 ms rise-fall time) through a Beyer earphone attached to a customized plastic speculum inserted into the ear canal. Up to 1024 responses were averaged for each stimulus level. Thresholds (the lowest stimulus level with a reproducible response) were determined by reducing the intensity in 10-dB steps and then in 5-dB steps approaching the threshold until no organized response was detected. Thresholds were evaluated based on ABR wave I. Scores were given by an expert blinded to experimental conditions between the highest stimulus level without a response and the lowest stimulus level where an organized response was observed. All ABR measurements were conducted by the same experimenter. […]

The subject of data set [3] is outer hair cells (OHCs) of p3 murine organ of Corti explants. Put plainly: Toxicity of HDAC inhibitors in murine cochlear explants (OHC loss by hair cell counts). It counts as cell-based, CBA/J mice. The settings on record: for loss of OHCs: 72 h; for concentration at which changes in orientation of stereociliary bundles of basal-turn OHCs begin / TD50 (median toxic dose, concentration leading to 50% OHC loss): 72 h incubation; for TD50 (median toxic dose, concentration leading to 50% OHC loss): p3 murine explants.
Text: as §1, §2, §3
In order to evaluate the protective potential of the three HDAC inhibitors on aminoglycoside-induced ototoxicity, we first determined their safety on auditory sensory hair cells using p3 murine organ of Corti explants. Explants were incubated for 2 days for recovery from the stress of dissection, followed by 72 h of incubation with or without inhibitors. Toxic effects were assessed by OHC loss. […] OHCs in the basal turn show changes in the orientation of the stereociliary bundles beginning with concentrations of 4 μM for SAHA, 3 μM for belinostat, and 20 nM for panobinostat.

In data set [4] the test system is hair cells in organotypic cultures of the cochlea. On the set-up: method as in Chen et al., 2009. The settings on record: ref Chen et al., 2009; cited from earlier work.
In a further data set the test system is guinea pigs. Details: method as in Wang et al., 2015. The settings on record: locally applied to the middle ear; ref Wang et al., 2015; cited from earlier work.

Experimental for pigmented guinea pigs: Pigmented male guinea pigs initially weighing 200–250 g from Charles River were used in the in-vivo study. Experiments were begun 1 week after the guinea pigs arrived. To select safe doses of SAHA for protective studies, we conducted two separate sets of experiments to assess serum platelet concentrations. […] In the second study, the higher doses (HD) of SAHA (15 mg/kg and 25 mg/kg) were used. The DMSO concentration was 1.1 g/kg, equal to the DMSO concentration used for the 25 mg/kg concentration of SAHA. […] SAHA was dissolved in 100% DMSO for stock solutions of 25 mg/mL and diluted with saline immediately before IP injections. All compound solutions were filtered with syringe filters before injection. Body weights were measured before each injection. If a guinea pig lost ~5% of its body weight, an additional 3–4 mL of saline was administrated subcutaneously.
The procedures for surface preparations of guinea pig cochlear epithelia were followed as previously described (Sha and Schacht, [1999b]). After the last auditory brain stem response (ABR) measurement, guinea pigs from the second group of experiments were deeply anesthetized in a CO2 chamber and decapitated. Cochleae were immediately removed and perfused with 4% paraformaldehyde in PBS at pH 7.4 and fixed overnight at 4°C. Micro-dissected surface preparations of the organ of Corti were permeabilized for 30 min with 0.5% Triton X-100 in PBS at room temperature (22–24°C) and stained with rhodamine phalloidin (Invitrogen) at a 1:100 dilution for 60 min at room temperature (22–24°C). After rinsing in PBS, the specimens were mounted on a slide with Gel-Mount™ (BioMeda Corp.). OHC counts were conducted with microscopy as described above for mice.
ABRs were measured 3 days before and 3 weeks after drug treatments. Animals were anesthetized with IP injections of ketamine (100 mg/kg) and xylazine (10 mg/kg) for mice or ketamine (58.8 mg/kg), xylazine (2.4 mg/kg), and acepromazine (1.2 mg/kg) for guinea pigs. Body temperature was maintained near 37°C with a heating pad. ABRs were measured at 12 and 32 kHz for guinea pigs or 8, 16, and 32 kHz for mice in a sound-isolated and electrically shielded booth (Acoustic Systems, Austin, TX, USA). Sub-dermal electrodes were inserted at the vertex of the skull, under the left ear and under the right ear (ground). […] Thresholds (the lowest stimulus level with a reproducible response) were determined by reducing the intensity in 10-dB steps and then in 5-dB steps approaching the threshold until no organized response was detected. Thresholds were evaluated based on ABR wave I. Scores were given by an expert blinded to experimental conditions between the highest stimulus level without a response and the lowest stimulus level where an organized response was observed. […]

Regarding `CNC(C)C1CCC(N)C(OC2C(N)CC(N)C(OC3OCC(C)(O)C(NC)C3O)C2O)O1` (stereo not drawn) [GM, gentamicin], in data set [1], the BUN worked out at 16 ± 4.5 and the Cr is on record as 0.5 ± 0.22. Further, the “overall loss of OHCs” value in data set [2] (GM 4.5 μM with vehicle (DMSO) alone, 72 h, base-to-apex gradient) is 40%. Also, the “OHC loss in the basal turn” value in the data set with pigmented guinea pigs is “significant OHC loss”.

Turning to `NC[C@H]1O[C@H](O[C@H]2[C@H](O)[C@@H](O[C@H]3O[C@H](CO)[C@@H](O)[C@H](N)[C@H]3O)[C@H](N)C[C@@H]2N)[C@H](O)[C@@H](O)[C@@H]1O` [KM, kanamycin], the “auditory threshold shift (ABR), average” value with CBA/J mice (16 kHz) and in the data set on CBA/J mice (32 kHz) was 55 dB in each case.

Turning to `O=C(/C=C/c1cccc(S(=O)(=O)Nc2ccccc2)c1)NO` [belinostat], in data set [3] (5 μM), the “loss of OHCs” value turned out to be 100%. Moreover, in data set [3], the “concentration at which changes in orientation of stereociliary bundles of basal-turn OHCs begin” value is 3000 nM and the “TD50 (median toxic dose, concentration leading to 50% OHC loss)” value came to 3.5 µM. Moreover, in data set [2] (72 h), the “concentration at which protection from GM-induced OHC loss begins” value was 0.1 µM and the “concentration that completely prevents GM-induced OHC loss” value amounted to 0.4 µM. Moreover, the “ED50 (median effective protective dose)” value in data set [2] is 50 nM.

For the compound `CCCC(=O)O` [butyrate, sodium butyrate], the “effect on hair cells under GM-induced damage” value in data set [4] is “rescued hair cells”. Further, the “protection of guinea pigs in vivo” value in the data set on guinea pigs was “protected”.

In the case of `Cc1[nH]c2ccccc2c1CCNCc1ccc(/C=C/C(=O)NO)cc1` [panobinostat], in data set [3] (50 nM), the “loss of OHCs” value stood at 100%. In data set [3], the “concentration at which changes in orientation of stereociliary bundles of basal-turn OHCs begin” value is recorded as 20 nM and the “TD50 (median toxic dose, concentration leading to 50% OHC loss)” value came to 0.035 µM. Besides, in data set [2] (72 h), the “concentration at which protection from GM-induced OHC loss begins” value was 0.005 µM and the “concentration that completely prevents GM-induced OHC loss” value worked out at 0.015 µM. Also, in data set [2], the “ED50 (median effective protective dose)” value worked out at 9 nM.

Consider `CC(/C=C/C(=O)NO)=C\[C@@H](C)C(=O)c1ccc(N(C)C)cc1` [trichostatin A], for which the “effect on hair cells under GM-induced damage” value in data set [4] is “rescued hair cells”.
